Measurements published in patent US5856303A, “Peptide, a bronchus-expanding agent, and a blood-flow-improving agent” (Itoham Foods, Inc., priority 1995, dated 1999).
Ends that are not written are not given here.

How the values were obtained:
Wistar male rats = assay: Blood-flow increasing action in anesthetized rats (femoral artery blood flow, carotid blood pressure); assay type: in vivo; settings: 100 pmol/kg intraarterially, right femoral artery
Procedure: Purified peptides 1 to 15 obtained in Examples 1 to 15 were examined for their blood-flow increasing action and compared with those of VIP and PACAP. Wistar male rats each weighing 220 to 250 g were anesthetized by intraperitoneal administration of pentobarbital (25 mg/kg) and fixed on their back. An arterial canula was inserted into the carotid and then connected to a blood-pressure transducer (DX-300, Nippon Koden, Japan) via a doom kit (SCK-512, Nippon Koden) filled with heparin-containing physiological saline (10 U/ml) to measure blood pressure with a strain blood-pressure amplifier (AP-601G, Nippon Koden). Further, a blood-flow measurement probe (FR-030T, Nippon Koden) was attached to the right femoral artery and then connected to an electromagnetic blood-flow meter (MFV-3200, Nippon Koden) to measure blood flow. The dosage of each peptide intraarterially administrated was 100 pmol/kg.

bronchial smooth muscle = assay: Bronchus-expanding action: relaxation of carbachol-contracted guinea pig tracheal chain in organ bath; assay type: cell-based, guinea pigs; settings: 0.1 μmol/l carbachol-contracted trachea
Description: Purified peptides 1 to 15 obtained in Examples 1 to 15 were examined for their bronchus-expanding action in the following manner and compared with that of VIP and PACAP.
Male guinea pigs each weighing 450 to 500 g were cut at the jugular veins to open the chests, and immediately the tracheae were immediately removed. Their tracheae were immediately placed in a Krebs solution and cut into loops and then formed into a chain by linking the cartilage parts with one another via a steel string. Then, the cartilage parts in the opposite side to the smooth muscular parts were cut such that the smooth muscular parts were attached to one another. The resulting sample was placed in an about 10-ml isothermic organ bath and perpendicularly suspended. The lower part was fixed and the upper part was connected to a grass force transducer with a load of 1.4 g. A gas of 94% oxygen and 6% carbon dioxide was sufficiently blown into this sample while a Krebs solution containing 0.1μ mol/l carbachol was dropped to it at a rate of 0.33 ml/min. to determine relaxation action. Because the relaxation reaction occurs depending on the content of a test sample in this drop solution, this can be used to compare the relaxation action of VIP and PACAP and that of the peptides of the invention on the bronchial smooth muscle.
A solution of each of […], PACAP and the peptides of the invention was prepared in a concentration as high as 100-fold than the final concentration so that its concentration in the organ bath could be adjusted. 30 minutes after the carbachol-containing Krebs solution was dropped, 100 μl of the sample solution was dropped.
It was assumed that the degree of contraction of the smooth muscle is 0 in the absence of carbachol and the degree is 100 in the presence of carbachol. Minimum contraction degree A (i.e. maximum relaxation value) in the presence of the sample was determined, and maximum relaxation degree B was calculated as follows:
Maximum relaxation degree B (%)=100-A
The time required to reach half of the maximum relaxation value (referred to hereinafter as "half-time T") after the addition of the sample was determined.
A change in the relaxation degree of the bronchial smooth muscle with time was determined using each peptide at 3 dosages of 0.3 μM, 1 μM, and 3 μM respectively. The results are shown in the drawings: PACAP in FIG. 1; peptide 5 obtained in Example 5, in FIG. 2; VIP in FIG. 3; and peptide 11 obtained in Example 11, in FIG. 4. The maximum relaxation degree B at a dosage of 3 μM is 75% for peptide 5 and 80% for peptide 11, and half-time T is 360 minutes or more in both the cases.

pituitary adenylate cyclase activating polypeptide (HSDGIFTDSYSRYRKQMAVKKYLAAVLGKRYKQRVKNK; ends and bridges not checked; UniProt P16613 132-169, looked up) [PACAP, structurally determined peptide consisting of 38 amino acid residues, isolated from sheep hypothalamus]
Blood Flow (increase in blood flow) (Wistar male rats): 16.04 ± 5.92 mL/min | Half-time T (time required to reach half of the maximum relaxation value) (bronchial smooth muscle; 0.3 μM): 60 min | Maximum relaxation degree B (bronchial smooth muscle; 0.3 μM): 40% | Half-time T (time required to reach half of the maximum relaxation value) (bronchial smooth muscle; 1 μM): 60 min | Maximum relaxation degree B (bronchial smooth muscle; 1 μM): 90% | Half-time T (time required to reach half of the maximum relaxation value) (bronchial smooth muscle; 3 μM): 100 min | Maximum relaxation degree B (bronchial smooth muscle; 3 μM): 90%

vasoactive intestinal peptide [VIP]
Blood Flow (increase in blood flow) (Wistar male rats): 10.18 ± 3.38 mL/min | Half-time T (time required to reach half of the maximum relaxation value) (bronchial smooth muscle; 0.3 μM): 130 min | Maximum relaxation degree B (bronchial smooth muscle; 0.3 μM): 45% | Half-time T (time required to reach half of the maximum relaxation value) (bronchial smooth muscle; 1 μM): 150 min | Maximum relaxation degree B (bronchial smooth muscle; 1 μM): 80% | Half-time T (time required to reach half of the maximum relaxation value) (bronchial smooth muscle; 3 μM): 240 min | Maximum relaxation degree B (bronchial smooth muscle; 3 μM): 85%
